Consider 3 compounds from US8148083B2, “Methods of screening for TRPM4 modulators of insulin secretion” (The Queen's Medical Center, priority 2006, dated 2012).

Where two headings read alike, the source gives them in different places.

Assay [1] concerns the target T1, TRPM4 (Rattus norvegicus, UniProt Q9ESQ5). Kind of assay: Glibenclamide on TRPM4 currents in INS-1 cells. The note with it: pressure applied.
Assay [2] addresses T2, TRPM4 (Homo sapiens, UniProt Q8TD43).
T2 construct: expressed in transfected cells; host or cells: TrexHEK-293 (tetracycline-inducible HEK-293)
Description: Whole-cell patch-clamp of TRPM4 currents in TrexHEK-293 cells overexpressing TRPM4, buffered [Ca2+]i. It counts as cell-based. To be noted: flag-TRPM4-TrexHEK293, current at +80 mV. (Patch clamp records ionic current or voltage across a cell membrane.)

The target of assay [3] is T1, TRPM4. Description: Whole-cell patch-clamp of TRPM4 currents in INS-1 cells perfused with buffered [Ca2+]i. It counts as cell-based. The note with it: current amplitude at +80 mV. Also on record: The channel was detected in INS-1 and RINm5F cell lines; endogenous in cells; host or cells: INS-1 (rat insulinoma beta-cell line).
Assay [4] relates to TRPM4. Kind of assay: Agonist-induced TRPM4 currents in TrexHEK293 cells overexpressing TRPM4 (double carbachol application). It counts as cell-based, human. On the procedure: Patch-clamp experiments were performed in the tight-seal whole-cell configuration at 21-25 ° C. High-resolution current recordings were acquired by a computer-based patch-clamp amplifier system (EPC-9, HEKA, Lambrecht, Germany). Patch pipettes had resistance between 3-6 MΩ after filling with the standard intracellular solution. […] Currents were filtered at 2.9 kHz and digitized at 100 μs intervals. Capacitive currents and series resistance were determined and corrected before each voltage ramp using the automatic capacitance compensation of the EPC-9. The low-resolution temporal development of membrane currents was assessed by extracting the current amplitude at -80 mV or +80 mV from individual ramp current records. Data analysis, statistical analysis and graphical display of patch-clamp experiments were done using the Igor […] software program (Wavemetrics). […] Cells were treated with carbachol twice according to protocol used in the calcium measurement experiments (n=5). First, to induce exocytosis of TRPM4 containing vesicles and second to activate the new pool of TRPM4 present in the plasma membrane. Utilizing Ca^2+ imaging techniques, fura-2-AM loaded cells were stimulated with 1 mM carbachol for 200 s followed by washout and a second stimulation (FIG. 9A). […]

[5] abbreviates: 600 s, read-out: KD, dose-response fit of TRPM4 activation, secondary phase.

T1 sequence (Q9ESQ5 whole entry): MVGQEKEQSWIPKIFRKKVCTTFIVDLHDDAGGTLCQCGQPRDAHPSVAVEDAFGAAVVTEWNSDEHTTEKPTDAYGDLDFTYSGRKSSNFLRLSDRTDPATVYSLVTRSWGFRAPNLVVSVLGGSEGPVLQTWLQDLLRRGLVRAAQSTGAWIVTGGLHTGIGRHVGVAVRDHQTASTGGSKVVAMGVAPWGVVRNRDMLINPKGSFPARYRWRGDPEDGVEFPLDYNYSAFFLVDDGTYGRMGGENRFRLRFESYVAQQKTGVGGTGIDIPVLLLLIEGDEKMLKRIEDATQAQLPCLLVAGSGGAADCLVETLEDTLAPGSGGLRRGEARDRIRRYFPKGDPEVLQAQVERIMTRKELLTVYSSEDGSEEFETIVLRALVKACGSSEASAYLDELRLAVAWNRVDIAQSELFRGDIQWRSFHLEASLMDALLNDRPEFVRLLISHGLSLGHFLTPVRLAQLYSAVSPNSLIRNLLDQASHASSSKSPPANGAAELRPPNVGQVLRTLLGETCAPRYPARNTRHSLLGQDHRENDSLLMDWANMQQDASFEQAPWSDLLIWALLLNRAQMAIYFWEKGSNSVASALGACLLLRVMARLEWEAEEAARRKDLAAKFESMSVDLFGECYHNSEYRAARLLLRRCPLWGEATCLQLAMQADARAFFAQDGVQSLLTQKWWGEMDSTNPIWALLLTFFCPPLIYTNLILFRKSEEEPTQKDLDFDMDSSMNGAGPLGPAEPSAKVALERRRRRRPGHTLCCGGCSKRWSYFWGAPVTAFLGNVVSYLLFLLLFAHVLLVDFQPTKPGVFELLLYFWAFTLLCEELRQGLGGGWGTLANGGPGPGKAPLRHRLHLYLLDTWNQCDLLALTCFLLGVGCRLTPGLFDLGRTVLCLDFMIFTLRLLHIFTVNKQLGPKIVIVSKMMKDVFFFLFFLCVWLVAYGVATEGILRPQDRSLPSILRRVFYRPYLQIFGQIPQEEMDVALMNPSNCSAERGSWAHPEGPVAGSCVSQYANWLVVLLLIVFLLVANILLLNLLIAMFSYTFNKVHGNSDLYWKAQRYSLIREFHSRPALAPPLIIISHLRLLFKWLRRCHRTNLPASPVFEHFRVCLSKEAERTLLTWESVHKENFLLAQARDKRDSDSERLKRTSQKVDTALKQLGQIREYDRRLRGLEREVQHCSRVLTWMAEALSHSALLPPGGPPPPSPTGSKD
T2 sequence (Q8TD43 whole entry): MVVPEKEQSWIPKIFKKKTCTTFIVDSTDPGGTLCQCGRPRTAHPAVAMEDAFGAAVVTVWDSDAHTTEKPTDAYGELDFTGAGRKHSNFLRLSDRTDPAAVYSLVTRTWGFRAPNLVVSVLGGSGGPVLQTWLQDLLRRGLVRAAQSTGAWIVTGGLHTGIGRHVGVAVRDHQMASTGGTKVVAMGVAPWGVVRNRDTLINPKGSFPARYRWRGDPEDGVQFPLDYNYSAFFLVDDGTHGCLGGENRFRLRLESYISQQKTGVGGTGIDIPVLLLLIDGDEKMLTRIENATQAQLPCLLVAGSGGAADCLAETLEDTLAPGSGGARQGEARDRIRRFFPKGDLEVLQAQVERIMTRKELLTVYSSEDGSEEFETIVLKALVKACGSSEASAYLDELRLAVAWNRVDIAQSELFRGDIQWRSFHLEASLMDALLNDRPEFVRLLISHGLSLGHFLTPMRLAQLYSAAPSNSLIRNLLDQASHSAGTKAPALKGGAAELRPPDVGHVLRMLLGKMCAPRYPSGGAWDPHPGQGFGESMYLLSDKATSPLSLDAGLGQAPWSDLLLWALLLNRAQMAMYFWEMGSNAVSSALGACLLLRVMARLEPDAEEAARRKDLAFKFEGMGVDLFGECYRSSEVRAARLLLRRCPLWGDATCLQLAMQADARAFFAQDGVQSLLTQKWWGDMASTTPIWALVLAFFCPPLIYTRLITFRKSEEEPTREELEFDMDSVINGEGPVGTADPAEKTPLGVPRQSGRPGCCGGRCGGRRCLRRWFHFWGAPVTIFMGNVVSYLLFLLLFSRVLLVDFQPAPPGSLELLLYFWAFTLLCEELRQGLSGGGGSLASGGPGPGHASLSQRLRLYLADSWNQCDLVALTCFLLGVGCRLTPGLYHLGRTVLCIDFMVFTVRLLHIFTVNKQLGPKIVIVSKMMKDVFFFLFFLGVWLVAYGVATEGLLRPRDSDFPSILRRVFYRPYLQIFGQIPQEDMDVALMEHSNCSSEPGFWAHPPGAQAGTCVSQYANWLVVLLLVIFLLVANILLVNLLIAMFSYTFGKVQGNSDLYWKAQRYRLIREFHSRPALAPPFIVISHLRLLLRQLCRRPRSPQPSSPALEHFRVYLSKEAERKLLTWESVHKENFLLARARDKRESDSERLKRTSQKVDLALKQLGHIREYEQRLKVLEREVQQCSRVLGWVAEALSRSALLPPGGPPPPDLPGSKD

Consider `COc1ccc(Cl)cc1C(=O)NCCc1ccc(S(=O)(=O)NC(=O)NC2CCCCC2)cc1` [Glibenclamide, glibenclamide], for which the “effect on TRPM4 channels” value at TRPM4 [1] was “activates TRPM4 channels”.
Consider `[Ca+2]` [Ca^2+], for which the Kd turned out to be 1300 nM at TRPM4 [2] (setting [5]); 1200 nM at TRPM4 [2] (peak of first phase, read-out: KD, dose-response fit of TRPM4 activation, first phase); 1700 nM on TRPM4 [3] (80 s, read-out: KD, dose-response fit of TRPM4 activation, first phase); 1200 nM on TRPM4 [3] (setting [5]).
Regarding `C[N+](C)(C)CCOC(N)=O` [carbachol], the results for the TRPM4 current amplitude result in the assay on TRPM4 [4] (first application of 1 mM carbachol) and in the assay on TRPM4 [4] (second carbachol application after washout) were “less than 1 nA” and “around 10 nA”, respectively.

As a reminder, the Kd is the constant that tells how readily two partners part at equilibrium.
